# “And” between values parts separate entries of the source, which are not always exact repeats. Identical values can stand only once. Like-named read-outs stand apart in the source and are kept apart here. Marks after values point to notes of the source that are not given here.
# Legend:
# [1] = tested on: P. falciparum Pf3D70087/N9; experiment: Murine P. falciparum SCID model, efficacy and recrudescence; format: in vivo, Plasmodium falciparum; conditions: for Parasitemia Day 3: day 3 = day of treatment
# Experimental: Compound efficacy was assessed in the murine P. falciparum SCID model essentially as described by Jimenez-Díaz et al. ([20]). Briefly, alone or in combination, M5717 (succinate salt by Merck KGaA [MSC2576186-B4]) and pyronaridine (tetraphosphate salt, Sigma-Aldrich [P0049]) were formulated in 7% Tween80, 3% ethanol and administered to a cohort of age-matched female immunodeficient NOD-scid IL-2Rγ^null mice (Jackson Laboratory, Bar Harbor, ME). These mice had been previously engrafted with human erythrocytes (generously provided by the blood bank in Zürich, Switzerland). Prior to compound treatment, mice were intravenously infected with 2 × 10^7 P. falciparum Pf3D7^0087/N9 -infected erythrocytes (day 0) ([30]). On day 3 after infection, mice, in groups of 2 to 5, were randomly allocated to treatments that were administered with a single oral gavage at 10 ml/kg (Table 2 and Fig. 2). Parasitemia was measured by microscopy. Chimerism was monitored by flow cytometry using an anti-murine erythrocyte TER119 monoclonal antibody (Pharmingen, San Diego, CA) and SYTO-16 and then analyzed by flow cytometry in serial blood samples (2 μl) collected every 2 to 3 days until the completion of the experiment (Table 2, day 60 and Fig. 2, day 80). Parasite recrudescence was detected by microscopy. Once parasitemia exceeded 0.5%, then 100 to 500 μl of blood was collected and stored at –80°C for subsequent sequence analysis. Animals received a second treatment with the same dose and if applicable the same combination of compounds as previously administered in that dose group (Fig. 2). Efficacy was again monitored by microscopy. If recrudescence occurred again then new blood samples were stored at –80°C.
# Time-to-recrudescence data were analyzed using the Kaplan-Meier method. Log-rank test was performed for two-group comparisons. Kaplan-Meier curves and log-rank test P values, as well as median estimates for time to recrudescence, are presented (SAS, Version 9.4. Cary, NC: SAS Institute Inc.; 2014).
# [2] = tested on: P. falciparum eEF2 mutant parasites; parameters: method as in PMID 26085270; conditions: cited from earlier work
# [3] = 400 mg in healthy volunteers ref 16; cited from earlier work
# [4] = M5717 3 mg/kg single oral dose (entry 1)
# [5] = M5717 6 mg/kg single oral dose (entry 2)
# [6] = M5717 12 mg/kg single oral dose (entry 3)
# [7] = M5717 30 mg/kg single oral dose (entry 4)
# [8] = pyronaridine 6 mg/kg single oral dose (entry 5)
# [9] = pyronaridine 12 mg/kg single oral dose (entry 6)
# [10] = pyronaridine 12 mg/kg single oral dose (entry 6), LLQ <0.01%
# [11] = pyronaridine 36 mg/kg single oral dose (entry 7)
# [12] = pyronaridine 36 mg/kg single oral dose (entry 7), LLQ <0.01%
smiles,measurement,setting,value
O=C(NCCN1CCCC1)c1cc(-c2ccc(CN3CCOCC3)cc2)nc2ccc(F)cc12 [M5717],Parasitemia Day 4,[1]; [4],0.65%
same,Parasitemia Day 5,[1]; [4],0.49%
same,Parasitemia Day 6,[1]; [4],0.19%
same,Mean DoR (day of recrudescence),"[1]; M5717 3 mg/kg single oral dose (entry 1), uncorrected",6 days postinfection
same,Parasitemia Day 3,[1]; [4],1.2%
same,Parasitemia Day 4,[1]; [5],1.4%
same,Parasitemia Day 5,[1]; [5],1.03%
same,Parasitemia Day 6,[1]; [5],0.46%
same,Mean DoR (day of recrudescence),"[1]; M5717 6 mg/kg single oral dose (entry 2), uncorrected",17 days postinfection
same,Parasitemia Day 3,[1]; [5],1.26%
same,mice in which resistance evolved,[1]; M5717 12 mg/kg arm,5/5
same,Parasitemia Day 4,[1]; [6],0.58%
same,Parasitemia Day 5,[1]; [6],0.53%
same,Parasitemia Day 6,[1]; [6],0.11%
same,Mean DoR (day of recrudescence),"[1]; M5717 12 mg/kg single oral dose (entry 3), uncorrected",24 days postinfection
same,Parasitemia Day 3,[1]; [6],0.81%
same,median time to recrudescence,"[1]; M5717 12 mg/kg single oral dose, all mice n = 5, Kaplan-Meier, 12 mg/kg",19 days
same,day postinfection at which LLQ was reached,"[1]; M5717 12 mg/kg single oral dose, n = 5 (Fig. 2A)",8 days
same,median time to recrudescence,"[1]; M5717 12 mg/kg, mice showing no response to retreatment (M1, M2, M3, n = 3)",18 days
same,response to retreatment with the same dosing regimen,"[1]; M5717 12 mg/kg, mice with early recrudescence (D17, D18, D19)",not susceptible
same,response to retreatment with the same dosing regimen,"[1]; M5717 12 mg/kg, mice with later recrudescence (D23, D24)",responded partially
same,median time to recrudescence,"[1]; M5717 12 mg/kg, mice with later recrudescence (M4 and M5, n = 2)",23.5 days
same,Parasitemia Day 4,[1]; [7],0.73%
same,Parasitemia Day 5,[1]; [7],0.54%
same,Parasitemia Day 6,[1]; [7],0.21%
same,Mean DoR (day of recrudescence),"[1]; M5717 30 mg/kg single oral dose (entry 4), uncorrected",24 days postinfection
same,Parasitemia Day 3,[1]; [7],0.89%
same,Parasitemia for the individual mice at blood draw,"[1]; M5717 1x30 mg/kg single oral dose, recrudescent samples 1.1 and 1.2",3.25% and 0.50%
same,Recrudescence day post infection,"[1]; M5717 1x30 mg/kg single oral dose, samples 1.1 and 1.2",24
same,breakpoint between both phases of biphasic clearance of parasitemia,"[1]; M5717 alone at 3, 6, 12 and 30 mg/kg",around 48 h
same,IC50 fold shift,[2]; eEF2 mutation L755F ref 7,660 fold
same,IC50 fold shift,[2]; eEF2 mutation P754A ref 7,135 fold
same,IC50 fold shift,[2]; eEF2 mutation P754S ref 7,200 fold
same,fold shift of IC50,"[2]; eEF2 mutation Y186N, high-grade resistance ref 7","> 3,000 fold"
COc1ccc2nc3cc(Cl)ccc3c(Nc3cc(CN4CCCC4)c(O)c(CN4CCCC4)c3)c2n1 [pyronaridine],Parasitemia Day 4,[1]; [8],0.09%
same,Parasitemia Day 5,[1]; [8],0.01%
same,Parasitemia Day 6,"[1]; pyronaridine 6 mg/kg single oral dose (entry 5), LLQ <0.01%",0.00^d %
same,Parasitemia Day 3,[1]; [8],0.89%
same,Parasitemia Day 4,[1]; [9],0.13%
same,Mean DoR (day of recrudescence),"[1]; pyronaridine 12 mg/kg single oral dose (entry 6), uncorrected",35 days postinfection
same,Parasitemia Day 5,[1]; [10],0.00^d %
same,Parasitemia Day 6,[1]; [10],0.00^d %
same,Parasitemia Day 3,[1]; [9],1.51%
same,Parasitemia Day 4,[1]; [11],0.12%
same,Parasitemia Day 5,[1]; [12],0.00^d %
same,Parasitemia Day 6,[1]; [12],0.00^d %
same,Parasitemia Day 3,[1]; [11],1.61%
same,Mean DoR (day of recrudescence),"[1]; pyronaridine 36 mg/kg single oral dose (entry 7), experiment ended at day 60 with parasitemia <0.01%",≥60^e days postinfection
same,t1/2,[3],10 days

# Source: article PMC7179297, “Preclinical Antimalarial Combination Study of M5717, a Plasmodium falciparum Elongation Factor 2 Inhibitor, and Pyronaridine, a Hemozoin Formation Inhibitor” (Antimicrobial Agents and Chemotherapy, 2020)
